Assays:
DSS colitis mice = assay: DSS-induced colitis in mice treated with AuPhos; type: in vivo, mouse; details: for colonic ulceration (tissue histology): left colon
Description: FIG. 9A includes results for changes with 2% DSS given for 7 days followed by water. AuPhos was started (25 mg/kg q 3D) on DAY1. Body Wt changes shown as means of each group (n=6) with SEM for 9 and 13 day trials. FIG. 9B includes results for changes with 2% DSS given for 7 days followed by water. AuPhos was started (25 mg/kg q 3D) on DAY1. Body Wt changes shown as means of each group (n=6) with SEM for 9 and 13 day trials as shown, with corresponding DAI. FIG. 9C includes results for changes with 2% DSS given for 7 days followed by water. AuPhos was started (25 mg/kg q 3D) on DAY1. Histological score in DSS-colitis mice 7 and 13 days after DSS initation. Statistical significance was determined using 2-way ANOVA with Sidak's multiple comparison test (A,B) or unpaired t-test (C). FIG. 9D includes images showing results for changes with 2% DSS given for 7 days followed by water. AuPhos was started (25 mg/kg q 3D) on DAY1. Representative images of H&E staining of whole tissue scan from 13-day study. ★★<0.01, ★★★<0.0001.
FIG. 12A RT-qPCR analysis of cytokines and chemokine genes in AuPhos vs. controls at 9 and 13 days after DSS initiation. FIG. 12B RT-qPCR analysis of cytokines and chemokine genes in AuPhos vs. controls at 9 and 13 days after DSS initiation. FIG. 12C Quantitative RT-PCR analysis of inflammasome markers in D13 DSS mice. Statistical significance was determined using multiple t-test with Holm-Sidak's multiple method. FIG. 12D Serum IL-6 in AuPhos treated (n=4) and control mice, with or without anti-CD3 antibody. ★<0.05; ★★<0.01.
FIGS. 17A-17F illustrate that AuPhos improves DSS-induced colitis. Results shown are for changes with 2% DSS given for 7 days followed by water. AuPhos was started (25 mg/kg q3D) on DAY1. FIG. 17A. Body Wt changes shown as means of each group (n=6) with SEM for 15 day trial as shown, with FIG. 17B. corresponding DAI. FIG. 17C. Histological score in DSS-colitis mice after Day−7, −11, −13, and −15 of DSS initiation. Statistical significance was determined using 2-way ANOVA with Sidak's multiple comparison test (A,B) or unpaired t-test (C) FIG. 17D. Representative images of H&E staining of whole tissue scan from 13-day study. E. Effect of AuPhos on intestinal permeability using FITC-dextran in DSS-colitis mice (n=5) in a separate D7, D9, D11, D13 and D15 experiment. F. RT-qPCR analysis of cytokines and chemokines genes in AuPhos vs. vehicle treated DSS colitis mice from 9-day, 13-day and 15-day studies. ß<0.05, ßß<0.01, ßßß<0.0001.
Given the potential that AuPhos provides a novel approach to IBD therapy, DSS colitis mice were given (2% DSS×7D) 25 mg/kg i.g. AuPhos every 3 days (from the start of DSS) until sacrifice.
Findings in FIG. 9A-9D indicate that AuPhos attenuates tissue inflammation and enhances mucosal healing in DSS colitis mice. To interrogate the effects of AuPhos on Th1 and Treg cytokine production as well as chemokine and inflammasome mediators, mRNA from mice at time points indicated (as in FIG. 9A-9D). […] To test the question of whether AuPhos affected leukocytes directly, control and AuPhos-treated (25 mg/kg i.g. dosed every 3d×2) were injected with anti-CD3 mAb (antiTCR mAb). It is known that CD3 mAb induces a cytokine storm in the periphery and intestine.
The efficacy of AuPhos in the treatment of colitis. Given the potential that AuPhos provides a novel approach to IBD therapy, DSS colitis mice (2% DSS×7D) were given intragastric (i.g.) AuPhos (25 mg/kg) every 3 days (from the start of DSS) until sacrifice.

[1] = Biodistribution and pharmacokinetics of AuPhos in tissues and stool after single oral dose; type: in vivo, mouse; details: single oral 25 mg/kg dose
Text: FIGS. 8A-8J present properties of AuPhos. FIG. 8A includes a chemical structure of AuPhos. FIG. 8B includes extrapolated AuPhos-induced OCR (complex I) in liver mitochondria. […] FIG. 8E provides weight change in AuPhos-treated mice over time. FIG. 8F presents stability of AuPhos in PBS and DMEM. FIG. 8G presents stability of AuPhos in PBS and DMEM. FIG. 8H includes an AuPhos-induced Heat map of DEG (left Panel), obtained using log 2(Fold Change) and p-Value <0.00001 thresholds in MDA-MB-231(107) cells (n=2), and the top six hits of KEGG analysis (right panel). FIG. 8I presents biodistribution and pharmacokinetics of AuPhos in different tissues; Colon, Small bowel, Lung, Kidney, Spleen, Liver, Heart and Blood after single dose (oral, 25 mg/kg) administration of AuPhos at 6 h, 12 h and 24 h. FIG. 8J presents biodistribution and pharmacokinetics of AuPhos in different tissues stool after single dose (oral, 25 mg/kg) administration of AuPhos at 6 h, 12 h and 24 h.
FIGS. 16A-16E illustrate the pharmacokinetics and effects of AuPhos on mitochondrial bioenergetics. FIG. 16A. Biodistribution and pharmacokinetics of AuPhos in different tissues; Colon, Small bowel, Spleen, Liver after a single intragastric (i.g.) gavage (25 mg/kg) with measurements of AuPhos tissue levels (graphite furnace atomic absorption spectroscopy) at times indicated. FIG. 16B. […]

[2] = 2% DSS x7D, 25 mg/kg i.g. every 3 days, 9 and 13 day trials
[3] = 2% DSS x7D, 25 mg/kg i.g. every 3 days, 15 day trial
[4] = DSS colitis mice, 9 and 13 days after DSS initiation, RT-qPCR

## [Cl][Au]1([c]2ccccc2Cc2ccccn2)[P](c2ccccc2)(c2ccccc2)c2ccccc2[P]1(c1ccccc1)c1ccccc1 [AuPhos]
DSS colitis mice; [2]
  DAI: significantly reduces
  weight (Wt) loss: significantly reduces
DSS colitis mice; 2% DSS x7D, 25 mg/kg i.g. every 3 days, 13-day study
  colonic ulceration (tissue histology): resolution of colonic ulceration throughout the left colon
DSS colitis mice; [3]
  disease activity index (DAI): significantly reduces
  weight (Wt) loss: significantly reduces
DSS colitis mice; 2% DSS x7D, 25 mg/kg i.g. every 3 days, at 13D
  tissue histologic indices (colitis score): significant decreases
DSS colitis mice; 2% DSS x7D, 25 mg/kg i.g. every 3 days, at D11, 13 and 15
  tissue histology indices (colitis score): significant decreases
DSS colitis mice; 15 day trial series
  colonic ulceration (tissue histology): resolution of colonic ulceration throughout the left colon
DSS colitis mice; D13 DSS mice, RT-PCR
  markers of inflammasome signaling mRNA: reduces
DSS colitis mice; DSS colitis mice, 9-day, 13-day and 15-day studies, RT-qPCR
  pro-inflammatory cytokine mRNA and chemokine-mediators of colitis (mucosal mRNA): reduces
DSS colitis mice; [4]
  chemokine-mediators of colitis mRNA (MCP-1, I-TAC and IP-10): reduces
  pro-inflammatory cytokine mRNA (IFNγ, TNF, IL-6 and IL-10): reduces
DSS colitis mice; DSS mice
  acute colitis: attenuates acute colitis
[1]
  evacuation in the stool: ≤ 12 h
  tissue biodistribution: clear accumulation in the small and large bowel tissues
